Data on 1 molecule can be found in patent publication US20140316119A1, “COMPOSITION FOR IMPROVING BIOMETABOLISM PARAMETER” (MATSUTANI CHEMICAL INDUSTRY CO., LTD., priority 2011, published 2014).

The subject of data set [1] is γ-GTP, ALT, ALP, and a uric acid level. As to the kind of experiment: Clinical trial, 12-week D-psicose ingestion (Example 1). In kind it is in vivo, human. The procedure: Increasing incidence of lifestyle-related diseases, diabetes in particular, has been a problem in Japan. Clinical trials were conducted with recruited diabetic subjects, and biometabolism parameter changes due to D-psicose were investigated. The recruited subjects consisted of diabetes borderline subjects (12 subjects with fasting glucose levels of 110 to 126 mg/dl), and diabetes patients (6 type 2 diabetes patients undergoing drug treatment) (all subjects, males and females, were at least 20 years of age at the time of informed consent). Five grams of D-psicose was ingested per meal for 12 weeks. The D-psicose was purchased from Izumoring Co., Ltd. The subjects were tested after 0, 2, 4, 8, and 12 weeks from the start of the ingestion, and after 4 weeks from the end of the ingestion period (week 16, post-ingestion observation). The subjects were fasted after the dinner served on the day before the testing date. The subjects were measured for γ-GTP, ALT, ALP, and a uric acid level using the service of BML Inc. A paired t-test was used for statistical comparison before and after the ingestion. In the figure, significant difference is given by *:0.05<P or **:0.01<P.

Another data set deals with γ-GTP, ALT, and ALP. As to the kind of experiment: Four-week D-psicose ingestion tests (Example 2). In kind it is in vivo, human. Particulars: 15 g once per day, after 2 weeks. The procedure:
Four-week D-psicose ingestion tests were conducted with recruited healthy individuals (8 individuals with a […]) and diabetes borderline subjects (6 individuals with fasting glucose levels of 110 to 126 mg/dl, or HbA1c of 5.9 to 6.5%) (all subjects, males and females, were at least 20 years of age at the time of informed consent). Each subject ingested 15 g of D-psicose once per day. The D-psicose was purchased from Izumoring Co., Ltd. The subjects were tested after 0, 2, and 4 weeks from the start of the ingestion, and after 4 weeks from the end of the ingestion period (week 8, post-ingestion observation). The subjects were fasted after the dinner served on the day before the testing date. The subjects were measured for γ-GTP, ALT, and ALP by using the service of BML Inc. A paired t-test was used for statistical comparison before and after the ingestion. In the figure, significant difference is given by *:0.05<P or **:0.01<P.

For data set [2] the following is noted: oral ingestion, cited from earlier work.
Where [3] appears, read: healthy individuals + diabetes borderline subjects.
[4] abbreviates: stratified: healthy individuals, P<0.01.

Each structure is given as a SMILES string.

On to `O=C(CO)[C@H](O)[C@H](O)[C@H](O)CO` [D-psicose], for which the ALT change result is given as “lack of significant decrease” in data set [1] (5 g per meal for 12 weeks); “significantly decreased” in the data set on γ-GTP, ALT, and ALP (setting [3]). Besides, the γ-GTP change result in data set [1] (all subjects (diabetes borderline + diabetes patients), 5 g D-psicose per meal, after 4 weeks from the ingestion, paired t-test vs before ingestion) was “significantly decreased”; in data set [1] (stratified: diabetes borderline patients, after 4 weeks, P<0.01) it was “significant decrease”; in data set [1] (stratified: diabetes patients, after 8 weeks, P<0.01) it was “significant decrease”; in the data set with γ-GTP, ALT, and ALP (setting [3]), “significantly decreased”; in the data set with γ-GTP, ALT, and ALP (setting [4]), “significant decrease”. The ALP change result in data set [1] (all subjects, 5 g D-psicose per meal, after 2 weeks from the ingestion) was “significant decrease”; in data set [1] (stratified: diabetes borderline patients, after 2 weeks, P<0.05) it was “significantly decreased”; in data set [1] (stratified: diabetes patients, after 2 weeks, P<0.05) it was “significantly decreased”; in the data set with γ-GTP, ALT, and ALP (setting [3]), “significantly decreased”; with γ-GTP, ALT, and ALP (setting [4]), “significant decrease”. The “uric acid level change” value in data set [1] (all subjects, 5 g per meal, after two weeks from the ingestion) is “significant decrease”; in data set [1] (stratified: diabetes borderline patients, after 2 weeks), “significant decrease”. The “share of ingested D-psicose directly absorbed but excreted into urine” value in data set [2] was 70%. Further, the “share of ingested D-psicose that reaches the large intestine, excreted into feces” value in data set [2] (essentially not utilized by enteric bacteria) is given as 30%.
